Experimental data taken from patent US11878975B2, “Substituted indole compounds useful as TLR inhibitors” (BRISTOL-MYERS SQUIBB COMPANY, priority 2017, dated 2024).

Columns and labels:
Format in all cases: cell-based
[1] = biological target: T1, human TLR7 (Homo sapiens, UniProt Q9NYK1); assay: TLR7 inhibition reporter assay (HEK-Blue cells, SEAP reporter, gardiquimod stimulation); conditions: HEK-Blue cells overexpressing human TLR7, SEAP reporter, gardiquimod 7.5 μM
T1 construct: host or cells: HEK-Blue cells
T1 sequence (Q9NYK1 27-1049): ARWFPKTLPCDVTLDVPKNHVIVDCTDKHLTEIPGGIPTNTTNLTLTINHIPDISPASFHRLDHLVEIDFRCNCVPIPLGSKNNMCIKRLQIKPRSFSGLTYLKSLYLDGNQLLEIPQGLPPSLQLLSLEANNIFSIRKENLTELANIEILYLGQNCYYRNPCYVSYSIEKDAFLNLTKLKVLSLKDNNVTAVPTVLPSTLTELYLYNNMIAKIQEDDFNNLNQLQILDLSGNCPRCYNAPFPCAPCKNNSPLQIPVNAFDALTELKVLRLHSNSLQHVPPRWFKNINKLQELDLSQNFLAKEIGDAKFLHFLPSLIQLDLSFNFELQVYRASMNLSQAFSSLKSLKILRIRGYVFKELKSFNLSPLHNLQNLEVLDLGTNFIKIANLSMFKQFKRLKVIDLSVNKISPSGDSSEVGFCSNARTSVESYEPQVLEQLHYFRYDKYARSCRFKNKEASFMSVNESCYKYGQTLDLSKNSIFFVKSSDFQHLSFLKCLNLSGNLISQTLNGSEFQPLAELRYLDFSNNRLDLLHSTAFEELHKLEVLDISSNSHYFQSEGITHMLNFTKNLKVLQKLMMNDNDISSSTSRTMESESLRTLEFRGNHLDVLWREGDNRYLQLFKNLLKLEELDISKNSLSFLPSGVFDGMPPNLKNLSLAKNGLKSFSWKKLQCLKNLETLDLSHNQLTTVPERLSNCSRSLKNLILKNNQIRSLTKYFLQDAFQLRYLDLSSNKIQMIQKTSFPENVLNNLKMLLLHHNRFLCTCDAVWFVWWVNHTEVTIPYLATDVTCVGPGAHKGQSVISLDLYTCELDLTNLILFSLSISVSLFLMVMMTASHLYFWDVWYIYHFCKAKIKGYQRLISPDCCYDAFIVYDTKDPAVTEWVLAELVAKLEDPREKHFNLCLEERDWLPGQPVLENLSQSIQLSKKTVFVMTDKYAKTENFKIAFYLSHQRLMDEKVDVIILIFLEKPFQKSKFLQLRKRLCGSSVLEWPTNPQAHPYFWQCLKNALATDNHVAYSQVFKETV
In short: (§1)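 Ligand levels: TLR7 gardiquimod 7.5 μM, TLR8 R848 15.9 μM, TLR9 ODN2006 5 nM, added after 30 min room-temperature compound pre-incubation at 0.05 nM-50 μM. Reporter SEAP read with HEK-Blue Detection reagent after 22 h, 37° C. Inhibition expressed as % reduction relative to agonist-plus-DMSO and known-inhibitor controls.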

[2] = biological target: T2, human TLR8 (Homo sapiens, UniProt Q9NR97); assay: TLR8 inhibition reporter assay (HEK-Blue cells, SEAP reporter, R848 stimulation); conditions: HEK-Blue cells overexpressing human TLR8, SEAP reporter, R848 15.9 μM
T2 construct: host or cells: HEK-Blue cells
T2 sequence (Q9NR97 27-1041): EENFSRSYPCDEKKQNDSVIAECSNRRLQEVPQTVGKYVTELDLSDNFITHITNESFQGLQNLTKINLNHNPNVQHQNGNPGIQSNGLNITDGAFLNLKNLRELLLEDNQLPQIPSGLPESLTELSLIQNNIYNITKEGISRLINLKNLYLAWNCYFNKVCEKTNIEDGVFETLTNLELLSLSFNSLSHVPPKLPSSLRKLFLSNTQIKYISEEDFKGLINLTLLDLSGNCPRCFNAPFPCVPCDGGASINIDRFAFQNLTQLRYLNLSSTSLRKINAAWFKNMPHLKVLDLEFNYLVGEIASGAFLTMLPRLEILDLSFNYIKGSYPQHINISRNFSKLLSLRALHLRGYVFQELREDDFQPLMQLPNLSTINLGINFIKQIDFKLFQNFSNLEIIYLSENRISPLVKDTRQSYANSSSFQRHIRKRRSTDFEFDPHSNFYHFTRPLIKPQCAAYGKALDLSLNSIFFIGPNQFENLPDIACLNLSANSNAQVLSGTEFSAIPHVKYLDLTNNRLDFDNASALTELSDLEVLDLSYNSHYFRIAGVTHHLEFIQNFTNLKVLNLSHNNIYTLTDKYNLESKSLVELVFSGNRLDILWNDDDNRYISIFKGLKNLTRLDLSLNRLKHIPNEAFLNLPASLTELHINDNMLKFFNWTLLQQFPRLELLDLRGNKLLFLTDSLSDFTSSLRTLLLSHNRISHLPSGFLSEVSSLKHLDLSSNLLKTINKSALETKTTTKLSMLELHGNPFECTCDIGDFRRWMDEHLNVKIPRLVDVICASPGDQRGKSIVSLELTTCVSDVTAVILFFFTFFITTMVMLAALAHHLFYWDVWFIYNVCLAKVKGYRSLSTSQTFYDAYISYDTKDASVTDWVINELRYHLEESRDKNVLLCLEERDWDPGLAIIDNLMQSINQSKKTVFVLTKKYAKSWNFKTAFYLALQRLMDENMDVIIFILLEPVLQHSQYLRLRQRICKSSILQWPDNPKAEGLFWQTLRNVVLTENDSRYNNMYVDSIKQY
In short: as §1

[3] = biological target: T3, human TLR9 (Homo sapiens, UniProt Q9NR96); assay: TLR9 inhibition reporter assay (HEK-Blue cells, SEAP reporter, ODN2006 stimulation); conditions: HEK-Blue cells overexpressing human TLR9, SEAP reporter, ODN2006 5 nM
T3 construct: host or cells: HEK-Blue cells
T3 sequence (Q9NR96 26-1032): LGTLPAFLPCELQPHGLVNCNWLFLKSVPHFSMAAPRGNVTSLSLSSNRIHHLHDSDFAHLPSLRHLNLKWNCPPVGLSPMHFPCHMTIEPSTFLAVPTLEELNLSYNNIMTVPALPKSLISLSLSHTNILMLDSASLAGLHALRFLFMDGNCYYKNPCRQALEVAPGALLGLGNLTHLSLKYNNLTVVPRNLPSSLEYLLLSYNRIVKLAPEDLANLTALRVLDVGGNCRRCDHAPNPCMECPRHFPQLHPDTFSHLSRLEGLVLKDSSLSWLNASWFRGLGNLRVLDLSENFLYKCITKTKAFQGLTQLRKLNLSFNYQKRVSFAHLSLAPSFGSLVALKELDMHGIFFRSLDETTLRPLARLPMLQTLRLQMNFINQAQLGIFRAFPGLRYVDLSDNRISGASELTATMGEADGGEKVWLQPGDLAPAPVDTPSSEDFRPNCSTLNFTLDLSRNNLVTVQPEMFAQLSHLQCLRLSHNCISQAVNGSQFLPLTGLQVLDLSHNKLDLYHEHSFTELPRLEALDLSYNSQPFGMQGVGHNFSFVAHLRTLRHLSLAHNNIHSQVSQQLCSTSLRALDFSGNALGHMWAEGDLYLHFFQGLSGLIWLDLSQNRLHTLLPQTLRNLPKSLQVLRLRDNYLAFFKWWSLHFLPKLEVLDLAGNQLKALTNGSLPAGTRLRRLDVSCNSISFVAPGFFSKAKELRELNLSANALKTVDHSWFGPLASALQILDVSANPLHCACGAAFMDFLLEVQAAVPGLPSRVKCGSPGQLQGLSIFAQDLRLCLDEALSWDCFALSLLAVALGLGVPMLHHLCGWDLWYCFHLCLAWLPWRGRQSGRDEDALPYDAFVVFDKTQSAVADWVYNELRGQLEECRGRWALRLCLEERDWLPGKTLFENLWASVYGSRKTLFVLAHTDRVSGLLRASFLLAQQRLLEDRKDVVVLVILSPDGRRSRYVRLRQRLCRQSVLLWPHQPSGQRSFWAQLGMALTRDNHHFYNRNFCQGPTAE
In short: as §1

Row | Compound | IC50 [1] | IC50 [2] | IC50 [3]
1 | CN[C@H](C)C(=O)N1CCCC(c2ccc3[nH]c(-c4cc(C)nc(C)c4)c(C(C)C)c3c2)C1 (stereo partly drawn) [Example 217] | 5 nM | 51 nM | 697 nM
2 | Cc1cc(-c2[nH]c3ccc(C4CCCN(C(=O)[C@@H]5CCN5)C4)cc3c2C(C)C)cc(C)n1 (stereo partly drawn) [Example 218] | 15 nM | 80 nM | 699 nM
3 | CN[C@@H](C)C(=O)N1CCCC(c2ccc3[nH]c(-c4cc(C)nc(C)c4)c(C(C)C)c3c2)C1 (stereo partly drawn) [Example 219] | 9 nM | 8.5 nM | 519 nM
4 | Cc1cc(-c2[nH]c3ccc(C4CCCN(C(=O)[C@@H]5CCN5)C4)cc3c2C(C)C)cc(C)n1 (stereo partly drawn) [Example 220] | 1 nM | 11 nM | 339 nM
5 | COc1cc(-c2[nH]c3ccc(C4CCCN(CC(=O)N(C)C)C4)cc3c2C(C)C)cn2ncnc12 (stereo not drawn) [Example 222, 2-(3-(3-isopropyl-2-(8-methoxy-[1,2,4]triazolo[1,5-a]pyridin-6-yl)-1H-indol-5-yl)piperidin-1-yl)-N,N-dimethylacetamide] | 2 nM | 9.2 nM | 3100 nM
6 | CNC(=O)CN1CCCC(c2ccc3[nH]c(-c4cc(OC)c5ncnn5c4)c(C(C)C)c3c2)C1 (stereo not drawn) [Example 223] | 2 nM | 13 nM | 7500 nM
7 | COc1cc(-c2[nH]c3ccc(C4CCCN(CC(=O)N(C)C)C4)cc3c2C(C)C)cn2ncnc12 (stereo not drawn) [Example 224] | 2 nM | 16 nM | 1830 nM
8 | COc1cc(-c2[nH]c3ccc(C4CCCN(CC(N)=O)C4)cc3c2C(C)C)cn2ncnc12 (stereo not drawn) [Example 225] | 4 nM | 12 nM | 4730 nM
9 | Cc1c(-c2[nH]c3ccc(C4CCCN(CC(=O)N(C)C)C4)cc3c2C(C)C)cn2ncnc2c1C (stereo not drawn) [Example 226] | 17 nM | 7.4 nM | 9770 nM
10 | COc1ccc(-c2[nH]c3ccc(C4CCCN(CC(=O)N(C)C)C4)cc3c2C(C)C)cc1OC (stereo not drawn) [Example 227] | 156 nM | 51 nM | 3770 nM
11 | CNC(=O)CN1CCCC(c2ccc3[nH]c(-c4cc(OC)c5ncnn5c4)c(C(C)C)c3c2)C1 (stereo not drawn) [Example 228] | 2 nM | 10 nM | 4870 nM
12 | COc1cc(-c2[nH]c3ccc(C4CCCN(CC(N)=O)C4)cc3c2C(C)C)cn2ncnc12 (stereo not drawn) [Example 229] | 4 nM | 8.1 nM | 6380 nM
13 | Cc1c(-c2[nH]c3ccc(C4CCCN(CC(=O)N(C)C)C4)cc3c2C(C)C)cn2ncnc2c1C (stereo not drawn) [Example 230] | 13 nM | 13 nM | 5790 nM
14 | CNC(=O)CN1CCCC(c2ccc3[nH]c(-c4cn5ncnc5c(C)c4C)c(C(C)C)c3c2)C1 (stereo not drawn) [Example 231] | 9 nM | 4.6 nM | 17300 nM
15 | CNC(=O)CN1CCCC(c2ccc3[nH]c(-c4cn5ncnc5c(C)c4C)c(C(C)C)c3c2)C1 (stereo not drawn) [Example 232] | 9 nM | 8.1 nM | 16300 nM
16 | Cc1cc(-c2[nH]c3ccc(C4CCCN(CC(=O)N(C)C)C4)cc3c2C(C)C)cc(C)n1 (stereo not drawn) [Example 233] | 15 nM | 56 nM | 1350 nM
17 | COc1cc(-c2[nH]c3ccc(C4CCCN(CC(N)=O)C4)cc3c2C(C)C)cn2ncnc12 (stereo not drawn) [Example 234] | 3 nM | 5.7 nM | 7370 nM
18 | Cc1cc(-c2[nH]c3ccc(C4CCCN(CC(=O)N(C)C)C4)cc3c2C(C)C)cc(C)n1 (stereo not drawn) [Example 235] | 40 nM | 12 nM | 693 nM
19 | COc1cc(-c2[nH]c3ccc(C4CCCN(C(C)C)C4)cc3c2C(C)C)cn2ncnc12 (stereo not drawn) [Example 236, 6-(3-isopropyl-5-(1-isopropylpiperidin-3-yl)-1H-indol-2-yl)-8-methoxy-[1,2,4]triazolo[1,5-a]pyridine] | 1 nM | 0.46 nM | 1250 nM
20 | COc1cc(-c2[nH]c3ccc(C4CCCN(C5COC5)C4)cc3c2C(C)C)cn2ncnc12 (stereo not drawn) [Example 237] | 15 nM | 38 nM | 21200 nM
21 | COc1cc(-c2[nH]c3ccc(C4CCCN(C)C4)cc3c2C(C)C)cn2ncnc12 (stereo not drawn) [Example 238] | 0.81 nM | 0.75 nM | 1240 nM
22 | COc1cc(-c2[nH]c3ccc(C4CCCN(C5COC5)C4)cc3c2C(C)C)cn2ncnc12 (stereo not drawn) [Example 240] | 5 nM | 4.2 nM | 11600 nM
23 | COc1cc(-c2[nH]c3ccc(C4CCCN(C)C4)cc3c2C(C)C)cn2ncnc12 (stereo not drawn) [Example 241] | 0.53 nM | 1.9 nM | 1300 nM
24 | COc1cc(-c2[nH]c3ccc(C4CCCN(C5COC5)C4)cc3c2C(C)C)cn2ncnc12 (stereo not drawn) [Example 242] | 8 nM | 2.4 nM | 25400 nM
25 | COc1cc(-c2[nH]c3ccc(C4CCCN(C5COC5)C4)cc3c2C(C)C)cn2ncnc12 (stereo not drawn) [Example 243] | 10 nM | 16 nM | 12900 nM
